Reference: PMC10945555, “Improving Activity of New Arylurea Agents against Multidrug-Resistant and Biofilm-Producing Staphylococcus epidermidis” (ACS Medicinal Chemistry Letters, 2024)
Values after ≈ are worked out from the molar mass of the structure shown. Read-outs that look alike come from different tables or passages of the source.

Columns and labels:
[1] = tested on: clinical MDR Staphylococcus epidermidis isolates; assay: MIC, broth microdilution, 81 clinical MDR strains; format: cell-based; conditions: Staphylococcus epidermidis
Experimental: 2 Biological assay protocols
Microbiological tests were carried out under aseptic conditions in a laminar chamber of the 2nd […]
(BioTectum 1.2, Alchem Poland). The assessment of antimicrobial activity was carried out for final compounds in the form of free bases, soluble in DMSO (Merck, Germany), at the initial […]
concentration of 1 mg/mL. […]
were provided by Cayman Chemical, USA. […]
The antibacterial activity of selected compounds was also tested on a panel of 81 unrelated, multidrug -resistant clinical strains of Staphylococcus epidermidis from the own collection of the Department of Pharmaceutical Microbiology of the Jagiellonian University Medical College.
2.2 Effect of evaluated compounds on planktonic cells
The susceptibility of three reference bacterial strains (Staphylococcus epidermidis ATCC […]
Table S1) and 81 clinical MDR S. epidermidis (Table S2) to the tested compounds was assessed by determining the MIC value (Minimal Inhibitory Concentration) by microdilution in a liquid medium in 96-well flat-bottom cell culture plates (Nest Biotechnology Scientific, USA). The antibacterial properties of the compo unds were tested in the concentration range from 50 µg/mL to 0.1 µg/mL by making a series of double dilutions of the compound in liquid Mueller -Hinton II Broth Cation Adjusted (MHB II, BBL TM, USA) according to the European Committee on […]
Antimicrobial Susceptibility Testing guidelines (EUCAST).2,3 The determinations were performed twice. The MIC50 and MIC90 values were determined for each of the tested

[2] = tested on: Staphylococcus aureus ATCC BAA-976; assay: MIC, broth microdilution, MDR/BPSA reference strain; format: cell-based; conditions: ATCCBAA976; Staphylococcus aureus ATCC BAA-976; read-out: MIC MDR/BPSA
Method in brief: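 Compounds tested as free bases dissolved in DMSO (1 mg/mL stock); determinations done twice; linezolid as positive control.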

CC(=O)NC[C@H]1CN(c2ccc(N3CCOCC3)c(F)c2)C(=O)O1 [linezolid, reference compound]
MIC ([1]; clinical strain 1 (Table S2), read-out: MIC): 1.6 µg/mL (≈ 4.74 µM)
MIC ([1]; clinical strain 2 (Table S2), read-out: MIC): 1.6 µg/mL (≈ 4.74 µM)
MIC ([1]; clinical strain 3 (Table S2), read-out: MIC): 1.6 µg/mL (≈ 4.74 µM)
MIC ([1]; clinical strain 4 (Table S2), read-out: MIC): 1.6 µg/mL (≈ 4.74 µM)
MIC ([1]; clinical strain 5 (Table S2), read-out: MIC): 1.6 µg/mL (≈ 4.74 µM)
MIC ([1]; clinical strain 6 (Table S2), read-out: MIC): 1.6 µg/mL (≈ 4.74 µM)
MIC ([1]; clinical strain 7 (Table S2), read-out: MIC): 1.6 µg/mL (≈ 4.74 µM)
MIC ([1]; clinical strain 8 (Table S2), read-out: MIC): 1.6 µg/mL (≈ 4.74 µM)
MIC ([1]; clinical strain 9 (Table S2), read-out: MIC): 1.6 µg/mL (≈ 4.74 µM)
MIC ([1]; clinical strain 10 (Table S2), read-out: MIC): 1.6 µg/mL (≈ 4.74 µM)
MIC ([1]; clinical strain 11 (Table S2), read-out: MIC): 1.6 µg/mL (≈ 4.74 µM)
MIC ([1]; clinical strain 12 (Table S2), read-out: MIC): 0.8 µg/mL (≈ 2.37 µM)
MIC ([1]; clinical strain 13 (Table S2), read-out: MIC): 1.6 µg/mL (≈ 4.74 µM)
MIC ([1]; clinical strain 14 (Table S2), read-out: MIC): 1.6 µg/mL (≈ 4.74 µM)
MIC ([1]; clinical strain 15 (Table S2), read-out: MIC): 1.6 µg/mL (≈ 4.74 µM)
MIC ([1]; clinical strain 16 (Table S2), read-out: MIC): 1.6 µg/mL (≈ 4.74 µM)
MIC ([1]; clinical strain 17 (Table S2), read-out: MIC): 0.8 µg/mL (≈ 2.37 µM)
MIC ([1]; clinical strain 18 (Table S2), read-out: MIC): 0.8 µg/mL (≈ 2.37 µM)
MIC ([1]; clinical strain 19 (Table S2), read-out: MIC): 1.6 µg/mL (≈ 4.74 µM)
MIC ([1]; clinical strain 20 (Table S2), read-out: MIC): 1.6 µg/mL (≈ 4.74 µM)
MIC ([1]; clinical strain 21 (Table S2), read-out: MIC): 1.6 µg/mL (≈ 4.74 µM)
MIC ([1]; clinical strain 22 (Table S2), read-out: MIC): 1.6 µg/mL (≈ 4.74 µM)
MIC ([1]; clinical strain 23 (Table S2), read-out: MIC): 1.6 µg/mL (≈ 4.74 µM)
MIC ([1]; clinical strain 24 (Table S2), read-out: MIC): 1.6 µg/mL (≈ 4.74 µM)
MIC ([1]; clinical strain 25 (Table S2), read-out: MIC): 1.6 µg/mL (≈ 4.74 µM)
MIC ([1]; clinical strain 26 (Table S2), read-out: MIC): 0.8 µg/mL (≈ 2.37 µM)
MIC ([1]; clinical strain 27 (Table S2), read-out: MIC): 1.6 µg/mL (≈ 4.74 µM)
MIC ([1]; clinical strain 28 (Table S2), read-out: MIC): 1.6 µg/mL (≈ 4.74 µM)
MIC ([1]; clinical strain 29 (Table S2), read-out: MIC): 0.8 µg/mL (≈ 2.37 µM)
MIC ([1]; clinical strain 30 (Table S2), read-out: MIC): 1.6 µg/mL (≈ 4.74 µM)
MIC ([1]; clinical strain 31 (Table S2), read-out: MIC): 1.6 µg/mL (≈ 4.74 µM)
MIC ([1]; clinical strain 32 (Table S2), read-out: MIC): 1.6 µg/mL (≈ 4.74 µM)
MIC ([1]; clinical strain 33 (Table S2), read-out: MIC): 0.8 µg/mL (≈ 2.37 µM)
MIC ([1]; clinical strain 34 (Table S2), read-out: MIC): 1.6 µg/mL (≈ 4.74 µM)
MIC ([1]; clinical strain 35 (Table S2), read-out: MIC): 1.6 µg/mL (≈ 4.74 µM)
MIC ([1]; clinical strain 36 (Table S2), read-out: MIC): 0.8 µg/mL (≈ 2.37 µM)
MIC ([1]; clinical strain 37 (Table S2), read-out: MIC): 0.8 µg/mL (≈ 2.37 µM)
MIC ([1]; clinical strain 38 (Table S2), read-out: MIC): 0.8 µg/mL (≈ 2.37 µM)
MIC ([1]; clinical strain 39 (Table S2), read-out: MIC): 0.8 µg/mL (≈ 2.37 µM)
MIC ([1]; clinical strain 40 (Table S2), read-out: MIC): 0.4 µg/mL (≈ 1.19 µM)
MIC ([1]; clinical strain 41 (Table S2), read-out: MIC): 0.8 µg/mL (≈ 2.37 µM)
MIC ([1]; clinical strain 42 (Table S2), read-out: MIC): 1.6 µg/mL (≈ 4.74 µM)
MIC ([1]; clinical strain 43 (Table S2), read-out: MIC): 0.8 µg/mL (≈ 2.37 µM)
MIC ([1]; clinical strain 44 (Table S2), read-out: MIC): 1.6 µg/mL (≈ 4.74 µM)
MIC ([1]; clinical strain 45 (Table S2), read-out: MIC): 0.8 µg/mL (≈ 2.37 µM)
MIC ([1]; clinical strain 46 (Table S2), read-out: MIC): 1.6 µg/mL (≈ 4.74 µM)
MIC ([1]; clinical strain 47 (Table S2), read-out: MIC): 0.8 µg/mL (≈ 2.37 µM)
MIC ([1]; clinical strain 48 (Table S2), read-out: MIC): 3.12 µg/mL (≈ 9.26 µM)
MIC ([1]; clinical strain 49 (Table S2), read-out: MIC): 0.2 µg/mL (≈ 0.593 µM)
MIC ([1]; clinical strain 50 (Table S2), read-out: MIC): 0.2 µg/mL (≈ 0.593 µM)
MIC ([1]; clinical strain 51 (Table S2), read-out: MIC): 0.2 µg/mL (≈ 0.593 µM)
MIC ([1]; clinical strain 52 (Table S2), read-out: MIC): 0.4 µg/mL (≈ 1.19 µM)
MIC ([1]; clinical strain 53 (Table S2), read-out: MIC): 0.4 µg/mL (≈ 1.19 µM)
MIC ([1]; clinical strain 54 (Table S2), read-out: MIC): 0.8 µg/mL (≈ 2.37 µM)
MIC ([1]; clinical strain 55 (Table S2), read-out: MIC): 0.8 µg/mL (≈ 2.37 µM)
MIC ([1]; clinical strain 56 (Table S2), read-out: MIC): 0.8 µg/mL (≈ 2.37 µM)
MIC ([1]; clinical strain 57 (Table S2), read-out: MIC): 0.8 µg/mL (≈ 2.37 µM)
MIC ([1]; clinical strain 58 (Table S2), read-out: MIC): 0.8 µg/mL (≈ 2.37 µM)
MIC ([1]; clinical strain 59 (Table S2), read-out: MIC): 0.8 µg/mL (≈ 2.37 µM)
MIC ([1]; clinical strain 60 (Table S2), read-out: MIC): 0.8 µg/mL (≈ 2.37 µM)
MIC ([1]; clinical strain 61 (Table S2), read-out: MIC): 0.8 µg/mL (≈ 2.37 µM)
MIC ([1]; clinical strain 62 (Table S2), read-out: MIC): 0.8 µg/mL (≈ 2.37 µM)
MIC ([1]; clinical strain 63 (Table S2), read-out: MIC): 0.8 µg/mL (≈ 2.37 µM)
MIC ([1]; clinical strain 64 (Table S2), read-out: MIC): 0.8 µg/mL (≈ 2.37 µM)
MIC ([1]; clinical strain 65 (Table S2), read-out: MIC): 0.8 µg/mL (≈ 2.37 µM)
MIC ([1]; clinical strain 66 (Table S2), read-out: MIC): 0.8 µg/mL (≈ 2.37 µM)
MIC ([1]; clinical strain 67 (Table S2), read-out: MIC): 1.6 µg/mL (≈ 4.74 µM)
MIC ([1]; clinical strain 68 (Table S2), read-out: MIC): 1.6 µg/mL (≈ 4.74 µM)
MIC ([1]; clinical strain 69 (Table S2), read-out: MIC): 1.6 µg/mL (≈ 4.74 µM)
MIC ([1]; clinical strain 70 (Table S2), read-out: MIC): 1.6 µg/mL (≈ 4.74 µM)
MIC ([1]; clinical strain 71 (Table S2), read-out: MIC): 1.6 µg/mL (≈ 4.74 µM)
MIC ([1]; clinical strain 72 (Table S2), read-out: MIC): 1.6 µg/mL (≈ 4.74 µM)
MIC ([1]; clinical strain 73 (Table S2), read-out: MIC): 1.6 µg/mL (≈ 4.74 µM)
MIC ([1]; clinical strain 74 (Table S2), read-out: MIC): 1.6 µg/mL (≈ 4.74 µM)
MIC ([1]; clinical strain 75 (Table S2), read-out: MIC): 1.6 µg/mL (≈ 4.74 µM)
MIC ([1]; clinical strain 76 (Table S2), read-out: MIC): 1.6 µg/mL (≈ 4.74 µM)
MIC ([1]; clinical strain 77 (Table S2), read-out: MIC): 1.6 µg/mL (≈ 4.74 µM)
MIC ([1]; clinical strain 78 (Table S2), read-out: MIC): 3.12 µg/mL (≈ 9.26 µM)
MIC ([1]; clinical strain 79 (Table S2), read-out: MIC): 12.5 µg/mL (≈ 37.1 µM)
MIC ([1]; clinical strain 80 (Table S2), read-out: MIC): 25 µg/mL (≈ 74.1 µM)
MIC ([1]; clinical strain 81 (Table S2), read-out: MIC): 50 µg/mL (≈ 148 µM)
MIC ([1]; mean of MIC values against clinical MDR-SE isolates, read-out: mean MIC): 2.3 µg/mL (≈ 6.82 µM)
MIC50 ([1]; 81 clinical strains, concentration inhibiting growth of 50% clinical isolates): 0.8 µg/mL (≈ 2.37 µM)
MIC90 ([1]; 81 clinical strains, concentration inhibiting growth of 90% of clinical isolates): 1.6 µg/mL (≈ 4.74 µM)
MIC [2]: 1.6 µg/mL (≈ 4.74 µM)
